Assay results as given in patent US7214669B2, “Tetracycline derivatives and methods of use thereof” (Tetragenex Pharmaceuticals, Inc., priority 2001, dated 2007).
“And” between values parts separate entries of the source, which are not always exact repeats. Equal entries are not always repeated.

How the values were obtained:
Human recombinant MMP9 = Human recombinant MMP9 (Homo sapiens, UniProt P14780); experiment: MMP9 (Gelatinase B) inhibition, 14C gelatin release; format: biochemical; details: 37° C., 16 hours; read-out: MMP-9 inhibitory activity, IC50
MMP2 (Gelatinase A) = target: T1, MMP2 (Gelatinase A) (Homo sapiens, UniProt P08253); experiment: MMP2 (Gelatinase A) inhibition, 14C gelatin release; format: biochemical; details: 37° C., 16 hours; read-out: MMP-2 inhibitory activity, IC50
T1 sequence (P08253 110-660): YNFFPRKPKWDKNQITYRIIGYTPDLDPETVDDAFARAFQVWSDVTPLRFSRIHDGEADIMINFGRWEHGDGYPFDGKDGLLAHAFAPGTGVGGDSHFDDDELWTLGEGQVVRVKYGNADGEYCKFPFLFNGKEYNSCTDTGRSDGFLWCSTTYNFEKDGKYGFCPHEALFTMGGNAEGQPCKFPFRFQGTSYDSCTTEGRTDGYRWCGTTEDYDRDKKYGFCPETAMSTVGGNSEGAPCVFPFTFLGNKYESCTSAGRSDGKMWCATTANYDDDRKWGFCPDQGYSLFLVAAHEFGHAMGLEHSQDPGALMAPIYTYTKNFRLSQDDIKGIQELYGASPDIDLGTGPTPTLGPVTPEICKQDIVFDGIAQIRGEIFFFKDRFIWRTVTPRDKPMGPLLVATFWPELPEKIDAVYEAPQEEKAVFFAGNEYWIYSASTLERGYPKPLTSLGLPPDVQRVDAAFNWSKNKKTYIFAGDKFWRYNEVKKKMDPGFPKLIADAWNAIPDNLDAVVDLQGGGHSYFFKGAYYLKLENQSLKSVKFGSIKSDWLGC

Human recombinant MMP14 = Human recombinant MMP14 (Homo sapiens, UniProt P50281); experiment: MMP14 (MTI-MMP) inhibition, 14C collagen release; format: biochemical; details: 35° C., 15 hours; read-out: MMP-14 inhibitory activity, IC50
Method: Protocol for Measuring MMP14 (MTI-MMP) Inhibition by Tetracycline Derivatives
MMP14 activity was determined by the release of soluble ^14C labelled collagen fragments from ^14C acetylated rat skin type I collagen (Methods in Enzymology 80 711, 1981).
• 100 μg ^14C labelled collagen (5–6000 dpm) • 50 mM Tris HCL pH 7.9 • 15 mM CaCl2 0.02% azide • Human recombinant MMP14 50–100 nM • ±Tetracycline (up to 1 mM) in a total volume of 300 μl.
Incubations were at 35° C. for 15 hours. Uncleaved collagen fibrils (which form within the first 10 minutes) were removed by centrifugation at 10,000 g 4° C. 10 minutes 200 μl supernatant were counted in Packard Opti Phase Supermix scintillation fluid using a scintillation counter. Only data derived from within the linear part of the assay (10–70% lysis of the collagen) were utilized. Based on percentage inhibition of the activity of MMP1 alone by a range of concentrations of each sample, the IC50 value for each tetracycline was calculated.

Human recombinant MMP1 = target: T2, Human recombinant MMP1 (Homo sapiens, UniProt P03956); experiment: MMP1 (Collagenase-1) inhibition, 14C collagen release; format: biochemical; details: 35° C., 5 hours; read-out: MMP-1 inhibitory activity, IC50
T2 sequence (P03956 100-469): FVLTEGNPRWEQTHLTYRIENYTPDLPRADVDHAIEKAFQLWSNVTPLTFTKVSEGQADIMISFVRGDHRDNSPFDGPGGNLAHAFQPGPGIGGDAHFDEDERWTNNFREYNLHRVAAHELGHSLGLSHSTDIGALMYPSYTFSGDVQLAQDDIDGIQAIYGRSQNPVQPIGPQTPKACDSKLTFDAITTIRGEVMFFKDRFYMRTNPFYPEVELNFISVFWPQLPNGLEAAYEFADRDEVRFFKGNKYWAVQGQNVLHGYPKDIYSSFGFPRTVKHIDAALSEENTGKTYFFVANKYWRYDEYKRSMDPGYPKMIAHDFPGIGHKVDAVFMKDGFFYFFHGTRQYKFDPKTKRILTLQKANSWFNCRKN

Human recombinant MMP3 = Human recombinant MMP3 (Homo sapiens, UniProt P08254); experiment: MMP3 (Stromelysin 1) inhibition, 14C casein release; format: biochemical; details: 37° C., 16 hours; read-out: MMP-3 inhibitory activity, IC50
Method: Protocol for Measuring MMP3 (Stromelysin 1) Inhibition
• 100 μg ^14C casein (7000 dpm) • 50 mM Tris HCl, pH 7.9 • 15 mM CaCl2, 0.02% azide • Human recombinant MMP3, 0.25–1.0 nM • ±tetracycline (up to 1 mM) in a total volume of 250 μl.
Incubations were at 37° C. for 16 hours. The reaction was stopped by the addition of 500 μl cold 18% TCA and standing on ice for 15 minutes. TCA precipitates were removed by centrifugation at 10,000 g for 10 minutes at 4° C. and 200 μl supernatant was taken for scintillation counting. Only data derived from within the linear part of the assay (10–60% lysis) were utilized. The percentage inhibition of MMP3 by each concentration of the candidate tetracycline was plotted to derive the IC50 value, using linear regression analysis.

[1] = tested on: Ark human myeloma cancer cells; experiment: Membrane Invasion Culture System (MICS) chemo-invasion assay; format: cell-based; details: 24 hours, + = increased invasiveness
Method in brief: (§1)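 Fifty thousand cells were seeded above a 35 μm laminin/collagen IV/gelatin barrier on a 10 μm-pore filter, with serum-free RPMI plus 50% fibroblast-conditioned medium below as chemoattractant. Compound at 1, 10 or 25 μg/ml, or DMSO vehicle, was present for 24 h. Invaded cells were collected, Wright-stained and counted over 5 fields.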

[2] = tested on: C8161 human melanoma cells; experiment: as above; format: cell-based; details: 24 hours, + = increased invasiveness
Method in brief: as §1

[3] = tested on: RPMI-8226 human myeloma cancer cells; experiment: as above; format: cell-based; details: 24 hours, + = increased invasiveness
Method in brief: as §1

Human recombinant MMP7 = target: T3, Human recombinant MMP7 (Homo sapiens, UniProt P09237); experiment: MMP7 (Matrilysin) inhibition, 14C casein release; format: biochemical; details: 37° C., 16 hours; read-out: MMP-7 inhibitory activity, IC50
T3 sequence (P09237 95-267): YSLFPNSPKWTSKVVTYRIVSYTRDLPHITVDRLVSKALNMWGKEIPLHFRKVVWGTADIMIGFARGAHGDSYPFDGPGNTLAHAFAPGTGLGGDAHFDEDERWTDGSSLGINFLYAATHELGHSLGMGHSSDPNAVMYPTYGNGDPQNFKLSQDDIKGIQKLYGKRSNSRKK

[4] = tested on: MDA-MB-231 human breast cancer cells; experiment: Membrane Invasion Culture System (MICS) chemo-invasion assay; format: cell-based; details: 24 hours, + = increased invasiveness
Method in brief: as §1

[5] = tested on: PC-3 ML human prostate cancer cells; experiment: as above; format: cell-based; details: 24 hours, + = increased invasiveness
Method in brief: as §1

Chain of Human recombinant MMP9 (P14780 94-707): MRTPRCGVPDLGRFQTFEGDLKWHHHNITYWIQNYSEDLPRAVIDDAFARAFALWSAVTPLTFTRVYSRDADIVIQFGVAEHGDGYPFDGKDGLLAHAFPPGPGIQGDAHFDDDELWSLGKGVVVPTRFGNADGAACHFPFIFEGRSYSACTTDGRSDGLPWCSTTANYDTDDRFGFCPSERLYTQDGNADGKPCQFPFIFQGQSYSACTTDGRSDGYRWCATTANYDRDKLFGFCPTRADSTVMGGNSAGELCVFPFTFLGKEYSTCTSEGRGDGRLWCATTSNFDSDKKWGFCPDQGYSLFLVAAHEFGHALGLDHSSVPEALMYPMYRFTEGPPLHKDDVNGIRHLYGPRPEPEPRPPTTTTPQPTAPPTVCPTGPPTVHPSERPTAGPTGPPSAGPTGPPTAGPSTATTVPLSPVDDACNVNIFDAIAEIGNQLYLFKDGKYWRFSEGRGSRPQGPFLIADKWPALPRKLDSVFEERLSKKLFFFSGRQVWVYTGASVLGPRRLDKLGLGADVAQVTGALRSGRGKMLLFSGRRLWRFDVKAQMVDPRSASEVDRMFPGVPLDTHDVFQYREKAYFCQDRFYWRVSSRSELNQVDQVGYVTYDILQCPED
Chain of Human recombinant MMP3 (P08254 100-477): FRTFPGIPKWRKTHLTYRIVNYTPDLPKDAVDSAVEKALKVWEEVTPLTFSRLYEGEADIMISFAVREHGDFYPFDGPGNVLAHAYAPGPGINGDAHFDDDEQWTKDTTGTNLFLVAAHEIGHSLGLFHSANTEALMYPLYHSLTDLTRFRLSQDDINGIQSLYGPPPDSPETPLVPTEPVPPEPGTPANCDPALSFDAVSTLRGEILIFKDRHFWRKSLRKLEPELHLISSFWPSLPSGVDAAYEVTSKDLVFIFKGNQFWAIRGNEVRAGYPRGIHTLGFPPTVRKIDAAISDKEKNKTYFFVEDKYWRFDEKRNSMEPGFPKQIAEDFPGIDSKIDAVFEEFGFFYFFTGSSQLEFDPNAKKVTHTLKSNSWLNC

Row | Structure (SMILES) | IC50 (Human recombinant MMP9) | IC50 (MMP2 (Gelatinase A)) | IC50 (Human recombinant MMP14) | IC50 (Human recombinant MMP1) | IC50 (Human recombinant MMP3) | percent inhibition, ARK ([1]; 1 ug/mL) | percent inhibition, ARK ([1]; 10 ug/mL) | percent inhibition, ARK ([1]; 25 ug/mL) | percent inhibition, C8161 (Melanoma) ([2]; 10 ug/mL) | percent inhibition, RPMI-8226 (Multiple Myeloma) ([3]; 1 ug/mL) | percent inhibition, RPMI-8226 (Multiple Myeloma) ([3]; 10 ug/mL) | percent inhibition, RPMI-8226 (Multiple Myeloma) ([3]; 25 ug/mL) | IC50 (Human recombinant MMP7) | percent inhibition, MDA-MB-231 (Breast) ([4]; 1 ug/mL) | percent inhibition, MDA-MB-231 (Breast) ([4]; 10 ug/mL) | percent inhibition, MDA-MB-231 (Breast) ([4]; 25 ug/mL) | percent inhibition, C8161 (Melanoma) ([2]; 1 ug/mL) | percent inhibition, C8161 (Melanoma) ([2]; 25 ug/mL) | percent inhibition, PC-3 ML (Prostrate) ([5]; 1 ug/mL) | percent inhibition, PC-3 ML (Prostrate) ([5]; 10 ug/mL) | further results
1 | CN(C)c1cc(N=[N+]=[N-])c(O)c2c1CC1CC3C(N(C)C)C(O)=C(C(N)=O)C(=O)C3(O)C(O)=C1C2=O (stereo not shown) [Compound 10, 9-Azido-7-demethylamino-6-demethyl-6-deoxytetracycline H2SO4] | 41 µM | 484 µM | 53 µM | 499 µM | 96 µM | 6% | +7% | 1% | 22% and 28^B percent | 3% | 5% | 29^B percent | > 1000 µM | – | – | – | – | – | – | – | –
2 | CC1c2ccc([N+]#N)c(O)c2C(=O)C2=C(O)C3(O)C(=O)C(C(N)=O)=C(O)C(N(C)C)C3C(O)C21 (stereo not shown) [Compound 11, 6-Deoxy-5-hydroxytetracycline-9-diazonium H2SO4] | 96 µM | > 1000 µM | 46 µM | 427 µM | 270 µM | – | – | – | 46^B percent | – | – | – | > 1000 µM | 6% | 15% | 36^B percent | 16% | 41^B percent | +3% | 0% | percent inhibition, PC-3 ML (Prostrate) ([5]; 25 ug/mL): 36^B percent
3 | CN(C)C1C(O)=C(C(N)=O)C(=O)C2(O)C(O)=C3C(=O)c4c(O)c(Br)cc(Br)c4CC3CC12 (stereo not shown) [Compound 13, 7,9-Dibromo-6-demethyl-6-deoxytetracycline H2SO4] | 64 µM | 48 µM | 14 µM | 126 µM | 206 µM | 2% | +7% | 1% | 12% | +11% | +13% | +12% | > 1000 µM | 4% | 0% | +9% | 6% | 14% | 8% | 23^B percent | percent inhibition, PC-3 ML (Prostrate) ([5]; 25 ug/mL): 13%
4 | CC(=O)Nc1ccc2c(c1O)C(=O)C1=C(O)C3(O)C(=O)C(C(N)=O)=C(O)C(N(C)C)C3C(O)C1C2C (stereo not shown) [Compound 16, 9-Acetamido-6-deoxy-5-hydroxytetracycline H2SO4] | 215 µM | 215 µM | 715 µM | 452 µM | > 1000 µM | – | – | – | – | – | – | – | 569 µM | – | – | – | – | – | – | – | –
